Common to all, as to test: KinomeScan
Type in all cases: binding
Common to all, as to details: 1uM

In one assay the target is T1, CAMKK1 (Homo sapiens, UniProt Q8N5S9).
T1 construct: purchased DiscoveRx KINOMEscan

The next assay has as its target T2, CDK5 (Homo sapiens, UniProt Q00535).
T2 construct: purchased DiscoveRx KINOMEscan

Another assay deals with T3, CDKL2 (Homo sapiens, UniProt Q92772).
T3 construct: purchased DiscoveRx KINOMEscan

The next assay has as its target T4, CHEK1 (Homo sapiens, UniProt O14757).
T4 construct: purchased DiscoveRx KINOMEscan

The next assay deals with T5, CSNK1A1L (Homo sapiens, UniProt Q8N752).
T5 construct: purchased DiscoveRx KINOMEscan

The test system of a further assay is EGFR(L747-T751del,Sins).
Another assay has as its target T6, EGFR(S752-I759del) (Homo sapiens, UniProt P00533, DEL752-759).
T6 construct: purchased DiscoveRx KINOMEscan

The next assay has as its target T7, EPHA3 (Homo sapiens, UniProt P29320).
T7 construct: purchased DiscoveRx KINOMEscan

The target of another assay is T8, FGR (Homo sapiens, UniProt P09769).
T8 construct: purchased DiscoveRx KINOMEscan

The target in a further assay is T9, IKK-beta (Homo sapiens, UniProt O14920).
T9 construct: purchased DiscoveRx KINOMEscan

For another assay, the target named is T10, KIT (Homo sapiens, UniProt P10721).
T10 construct: purchased DiscoveRx KINOMEscan

A further assay concerns the target T11, MAP3K3 (Homo sapiens, UniProt Q99759).
T11 construct: purchased DiscoveRx KINOMEscan

The target in the next assay is T12, MELK (Homo sapiens, UniProt Q14680).
T12 construct: purchased DiscoveRx KINOMEscan

Another assay has as its target T13, MLK3 (Homo sapiens, UniProt Q16584).
T13 construct: purchased DiscoveRx KINOMEscan

The target in the next assay is T14, MST1 (Homo sapiens, UniProt Q13043).
T14 construct: purchased DiscoveRx KINOMEscan

For another assay, the target named is T15, NEK5 (Homo sapiens, UniProt Q6P3R8).
T15 construct: purchased DiscoveRx KINOMEscan

For a further assay, the target named is T16, NEK7 (Homo sapiens, UniProt Q8TDX7).
T16 construct: purchased DiscoveRx KINOMEscan

The target of a further assay is T17, PIK3CG (Homo sapiens, UniProt P48736).
T17 construct: purchased DiscoveRx KINOMEscan

Another assay addresses T18, PIM2 (Homo sapiens, UniProt Q9P1W9).
T18 construct: purchased DiscoveRx KINOMEscan

For another assay, the target named is T19, PIP5K2B (Homo sapiens, UniProt P78356).
T19 construct: purchased DiscoveRx KINOMEscan

A further assay has as its target T20, STK33 (Homo sapiens, UniProt Q9BYT3).
T20 construct: purchased DiscoveRx KINOMEscan

For a further assay, the target named is T21, TGFBR2 (Homo sapiens, UniProt P37173).
T21 construct: purchased DiscoveRx KINOMEscan

For a further assay, the target named is T22, WNK3 (Homo sapiens, UniProt Q9BYP7).
T22 construct: purchased DiscoveRx KINOMEscan

T17 sequence (P48736 whole entry): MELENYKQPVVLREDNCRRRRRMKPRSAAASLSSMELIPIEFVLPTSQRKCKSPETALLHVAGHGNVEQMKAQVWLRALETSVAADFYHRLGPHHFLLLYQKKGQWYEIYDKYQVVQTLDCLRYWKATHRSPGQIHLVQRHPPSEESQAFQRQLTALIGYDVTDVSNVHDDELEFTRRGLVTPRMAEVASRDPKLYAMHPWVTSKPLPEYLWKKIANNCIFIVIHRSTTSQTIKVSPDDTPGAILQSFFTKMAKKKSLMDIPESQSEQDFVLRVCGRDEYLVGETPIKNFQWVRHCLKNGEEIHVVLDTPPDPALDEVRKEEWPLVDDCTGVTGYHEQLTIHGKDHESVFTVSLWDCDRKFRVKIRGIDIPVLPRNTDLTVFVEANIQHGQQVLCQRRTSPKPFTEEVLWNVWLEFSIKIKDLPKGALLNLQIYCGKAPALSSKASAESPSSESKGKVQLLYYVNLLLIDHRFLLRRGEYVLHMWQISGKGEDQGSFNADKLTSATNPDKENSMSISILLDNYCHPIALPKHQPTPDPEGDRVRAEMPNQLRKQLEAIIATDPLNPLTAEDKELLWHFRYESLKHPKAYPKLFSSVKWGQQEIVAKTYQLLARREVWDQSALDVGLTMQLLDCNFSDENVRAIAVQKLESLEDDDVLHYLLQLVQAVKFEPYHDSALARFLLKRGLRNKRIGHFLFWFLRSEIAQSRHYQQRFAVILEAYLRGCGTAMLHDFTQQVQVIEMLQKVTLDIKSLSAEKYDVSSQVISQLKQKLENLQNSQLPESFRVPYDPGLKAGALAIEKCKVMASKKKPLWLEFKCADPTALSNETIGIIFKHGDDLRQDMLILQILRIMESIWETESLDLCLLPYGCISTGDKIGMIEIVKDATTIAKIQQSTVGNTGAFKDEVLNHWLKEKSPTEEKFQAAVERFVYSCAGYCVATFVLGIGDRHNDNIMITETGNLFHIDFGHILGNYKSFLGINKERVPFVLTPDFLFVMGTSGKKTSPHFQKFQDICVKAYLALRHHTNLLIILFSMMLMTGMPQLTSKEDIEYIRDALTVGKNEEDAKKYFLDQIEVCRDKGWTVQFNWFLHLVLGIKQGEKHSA
T9 sequence (O14920 whole entry): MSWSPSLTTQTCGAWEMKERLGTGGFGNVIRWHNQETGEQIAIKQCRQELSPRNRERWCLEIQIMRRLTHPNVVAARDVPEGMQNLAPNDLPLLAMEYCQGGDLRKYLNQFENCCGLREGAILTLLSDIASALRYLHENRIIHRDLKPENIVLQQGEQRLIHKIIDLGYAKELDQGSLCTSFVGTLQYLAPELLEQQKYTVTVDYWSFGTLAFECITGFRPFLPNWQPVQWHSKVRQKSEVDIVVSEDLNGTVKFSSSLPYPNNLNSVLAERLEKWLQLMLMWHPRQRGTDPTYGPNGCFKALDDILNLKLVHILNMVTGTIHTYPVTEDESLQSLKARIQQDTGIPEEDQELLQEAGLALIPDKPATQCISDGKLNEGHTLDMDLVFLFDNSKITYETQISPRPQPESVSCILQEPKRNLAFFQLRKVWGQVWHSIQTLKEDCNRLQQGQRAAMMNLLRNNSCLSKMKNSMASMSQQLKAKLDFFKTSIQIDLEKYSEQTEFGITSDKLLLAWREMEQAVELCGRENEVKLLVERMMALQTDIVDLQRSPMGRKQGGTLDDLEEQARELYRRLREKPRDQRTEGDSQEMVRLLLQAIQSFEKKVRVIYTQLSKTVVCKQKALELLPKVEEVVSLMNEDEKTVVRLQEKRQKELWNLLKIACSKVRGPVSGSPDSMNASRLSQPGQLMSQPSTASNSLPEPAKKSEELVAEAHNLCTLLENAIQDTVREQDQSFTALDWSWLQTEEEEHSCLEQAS
T1 sequence (Q8N5S9 whole entry): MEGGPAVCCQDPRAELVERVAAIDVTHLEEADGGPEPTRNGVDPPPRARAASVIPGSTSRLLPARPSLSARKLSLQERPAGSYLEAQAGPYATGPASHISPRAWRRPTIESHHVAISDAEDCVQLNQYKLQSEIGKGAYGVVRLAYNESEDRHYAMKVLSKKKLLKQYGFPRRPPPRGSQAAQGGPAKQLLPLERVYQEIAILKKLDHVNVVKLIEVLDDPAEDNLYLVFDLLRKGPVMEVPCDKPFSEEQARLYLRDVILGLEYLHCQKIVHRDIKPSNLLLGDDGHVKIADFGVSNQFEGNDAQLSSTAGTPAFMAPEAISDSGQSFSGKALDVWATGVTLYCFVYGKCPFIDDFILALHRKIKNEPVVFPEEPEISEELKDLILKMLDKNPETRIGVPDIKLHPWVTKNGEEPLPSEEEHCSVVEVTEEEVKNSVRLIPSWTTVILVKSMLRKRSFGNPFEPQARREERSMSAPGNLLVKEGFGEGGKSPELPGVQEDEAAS
T13 sequence (Q16584 whole entry): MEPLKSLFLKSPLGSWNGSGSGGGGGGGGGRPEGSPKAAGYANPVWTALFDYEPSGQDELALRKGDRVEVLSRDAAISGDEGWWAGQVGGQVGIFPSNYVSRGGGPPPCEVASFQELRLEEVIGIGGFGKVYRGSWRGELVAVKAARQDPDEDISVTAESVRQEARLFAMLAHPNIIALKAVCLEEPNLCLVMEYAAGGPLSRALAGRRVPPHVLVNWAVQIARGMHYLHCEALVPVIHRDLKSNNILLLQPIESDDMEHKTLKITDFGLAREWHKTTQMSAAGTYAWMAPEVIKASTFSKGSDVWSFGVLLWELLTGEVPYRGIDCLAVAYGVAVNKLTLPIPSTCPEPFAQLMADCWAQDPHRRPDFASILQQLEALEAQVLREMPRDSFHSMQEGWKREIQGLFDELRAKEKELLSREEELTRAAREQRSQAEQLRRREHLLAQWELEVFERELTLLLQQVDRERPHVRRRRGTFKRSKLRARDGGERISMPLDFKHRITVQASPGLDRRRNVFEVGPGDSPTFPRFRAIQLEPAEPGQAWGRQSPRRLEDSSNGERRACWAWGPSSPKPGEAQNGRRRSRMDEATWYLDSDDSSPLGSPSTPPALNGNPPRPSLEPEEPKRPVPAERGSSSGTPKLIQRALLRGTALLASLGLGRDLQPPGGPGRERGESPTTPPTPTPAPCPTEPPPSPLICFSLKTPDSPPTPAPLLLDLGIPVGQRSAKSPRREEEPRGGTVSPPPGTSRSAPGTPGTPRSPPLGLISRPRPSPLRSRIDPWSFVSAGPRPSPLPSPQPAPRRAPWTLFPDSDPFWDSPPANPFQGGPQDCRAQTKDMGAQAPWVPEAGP
T5 sequence (Q8N752 whole entry): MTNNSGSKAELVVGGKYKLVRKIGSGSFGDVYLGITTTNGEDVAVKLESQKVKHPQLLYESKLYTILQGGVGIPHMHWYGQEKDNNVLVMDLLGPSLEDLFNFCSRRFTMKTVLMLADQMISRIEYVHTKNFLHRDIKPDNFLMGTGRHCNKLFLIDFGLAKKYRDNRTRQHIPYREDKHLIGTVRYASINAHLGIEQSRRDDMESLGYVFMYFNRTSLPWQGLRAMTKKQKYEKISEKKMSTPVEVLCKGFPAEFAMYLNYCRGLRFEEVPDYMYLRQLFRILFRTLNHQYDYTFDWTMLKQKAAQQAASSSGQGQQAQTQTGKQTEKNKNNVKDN
T10 sequence (P10721 26-976): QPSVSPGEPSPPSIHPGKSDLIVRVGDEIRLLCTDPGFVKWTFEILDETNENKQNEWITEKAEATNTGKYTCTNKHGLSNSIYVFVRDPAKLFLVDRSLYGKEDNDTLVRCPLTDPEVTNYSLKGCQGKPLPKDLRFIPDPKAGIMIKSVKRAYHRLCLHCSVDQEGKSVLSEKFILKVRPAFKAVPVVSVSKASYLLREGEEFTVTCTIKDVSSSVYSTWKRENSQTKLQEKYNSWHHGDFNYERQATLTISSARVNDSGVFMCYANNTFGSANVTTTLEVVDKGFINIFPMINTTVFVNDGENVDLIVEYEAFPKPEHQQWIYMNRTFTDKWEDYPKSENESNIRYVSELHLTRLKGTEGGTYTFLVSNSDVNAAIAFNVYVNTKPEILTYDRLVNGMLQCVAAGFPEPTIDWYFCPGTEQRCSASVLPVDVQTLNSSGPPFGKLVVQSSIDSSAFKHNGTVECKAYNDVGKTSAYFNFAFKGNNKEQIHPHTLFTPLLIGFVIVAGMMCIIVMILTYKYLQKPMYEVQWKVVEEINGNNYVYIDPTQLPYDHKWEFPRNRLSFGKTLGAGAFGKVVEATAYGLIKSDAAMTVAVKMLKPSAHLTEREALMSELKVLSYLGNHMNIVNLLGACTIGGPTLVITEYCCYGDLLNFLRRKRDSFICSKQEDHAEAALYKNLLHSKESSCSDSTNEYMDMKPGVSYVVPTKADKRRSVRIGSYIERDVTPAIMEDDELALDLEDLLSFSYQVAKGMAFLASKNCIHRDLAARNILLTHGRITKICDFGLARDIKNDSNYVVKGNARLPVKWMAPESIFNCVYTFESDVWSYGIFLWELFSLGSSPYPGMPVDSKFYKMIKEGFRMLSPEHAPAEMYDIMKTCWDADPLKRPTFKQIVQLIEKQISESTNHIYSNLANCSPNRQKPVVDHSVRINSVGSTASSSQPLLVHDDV
T18 sequence (Q9P1W9 whole entry): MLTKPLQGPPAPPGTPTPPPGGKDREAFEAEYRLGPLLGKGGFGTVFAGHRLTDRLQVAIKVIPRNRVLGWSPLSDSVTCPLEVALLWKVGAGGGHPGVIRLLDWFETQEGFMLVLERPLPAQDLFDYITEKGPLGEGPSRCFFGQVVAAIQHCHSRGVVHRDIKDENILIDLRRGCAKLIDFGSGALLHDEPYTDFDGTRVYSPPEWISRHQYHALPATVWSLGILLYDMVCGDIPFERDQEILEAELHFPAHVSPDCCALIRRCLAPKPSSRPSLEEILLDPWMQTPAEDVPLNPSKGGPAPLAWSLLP

For the molecule `Cc1nc(NC(=O)[C@@H](N)C(C)C)sc1-c1cnc(Cl)c(NS(=O)(=O)c2ccccc2)c1` [PI3KD-IN-015], at CAMKK1, the “KinomeScan CAMKK1” value was 100. The “KinomeScan CDK5” value on CDK5 worked out at 100. Further, the “KinomeScan CDKL2” value at CDKL2 is given as 100. Further, the “KinomeScan CHEK1” value on CHEK1 is 100. The “KinomeScan CSNK1A1L” value on CSNK1A1L worked out at 100. For the same molecule, the “KinomeScan EGFR(L747-T751del,Sins)” value in the assay with EGFR(L747-T751del,Sins) came to 100. Moreover, on EGFR(S752-I759del), the “KinomeScan EGFR(S752-I759del)” value was found to be 100. Also, at EPHA3, the “KinomeScan EPHA3” value came to 86. Moreover, the “KinomeScan FGR” value at FGR was determined as 100. At IKK-beta, the “KinomeScan IKK-beta” value amounted to 100. Further, the “KinomeScan KIT” value on KIT came out at 92. At MAP3K3, the “KinomeScan MAP3K3” value came to 100. The “KinomeScan MELK” value on MELK is listed as 90. For the same molecule, at MLK3, the “KinomeScan MLK3” value was found to be 100. The “KinomeScan MST1” value at MST1 is reported as 83. Also, at NEK5, the “KinomeScan NEK5” value was found to be 100. The “KinomeScan NEK7” value on NEK7 is on record as 100. Further, the “KinomeScan PIK3CG” value at PIK3CG amounted to 0.05. In addition, the “KinomeScan PIM2” value at PIM2 was found to be 72. On PIP5K2B, the “KinomeScan PIP5K2B” value came to 100. On STK33, the “KinomeScan STK33” value came to 88. For the same molecule, at TGFBR2, the “KinomeScan TGFBR2” value is 100. Further, the “KinomeScan WNK3” value on WNK3 is given as 100.

The values are drawn from publication PMC5078040 (Oncotarget, 2016).
